Structures are written as SMILES.

The series can be described thus: gradient 5% acetonitrile 3 min, to 50% in 2 min, to 85% in 15 min, held 3 min, 100 µL/min. The following applies: column: Zorbax Extend-C18 2.1 x 50 mm; eluents: water / acetonitrile, 0.1% formic acid. In a few lines: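 In both positive and negative ionization mode, a quadrupole time-of-flight mass spectrometer coupled to HPLC analyzed pure standards run in mixtures of ~100 molecules. The Zorbax Extend-C18 column (2.1 × 50 mm, 1.8 μm) was operated at 100 μL/min with water and acetonitrile, each containing 0.1% formic acid. The dead volume was 40 μL and the dwell volume 900 μL. Retention time came from adduct peaks that were computationally picked and individually inspected by hand.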
Take `CCCN1C(=O)c2cc(S(=O)(=O)N(C)Cc3ccccc3)ccc2Oc2cccnc21`: the RP-LC retention time was 1190 s.
`CCc1cccc(N2C(=O)CN(S(C)(=O)=O)CC2(C)C(=O)NCc2ccccc2)c1` (stereo unspecified) registered an RP-LC retention time of 804 s.
Under `COc1ccc(C)cc1NC(=O)N1C[C@@H]2C[C@H]1C[C@@H]2NC(=O)c1cccs1` stands 819 s; under `O=C(NC1CCS(=O)(=O)C1)C1CCN(S(=O)(=O)c2cccs2)CC1` (stereo unspecified), 616 s.
In turn, `CN(C)C(CNC(=O)Nc1cccs1)c1ccccc1Cl` (stereo unspecified) had an RP-LC retention time of 562 s.
Turning to `C#CCOCC1CCN(C(=O)c2cc(-c3cccs3)[nH]n2)CC1`, the RP-LC retention time turned out to be 734 s.
Turning to `Cc1cccn2cc(-c3cccc(S(=O)(=O)N4CCCCCC4)c3)nc12`, the RP-LC retention time came to 692 s.
Under `O=c1ccn(-c2ccccc2)nc1-c1nc(-c2ccccn2)no1` stands 685 s; under `CSc1nc(N)c(C(=O)NC2CCCCC2)s1`, 878 s.
Under `c1ccc(-c2noc(CN3CCCCC3c3nc(C4CC4)no3)n2)nc1` (stereo unspecified) stands 784 s; under `O=C1NCCCCCCN(C(=O)Nc2ccccc2F)[C@H]2CCCC[C@@H]12`, 846 s; under `Cc1nn(-c2ccccc2)c2sc(C(=O)NC(C)C)cc12`, 966 s.
In the case of `CSc1ccc(NC(=O)COc2ccccc2)nn1` it was 764 s; in that of `CC(=O)OC1CCN(C(=O)C(C)(C)C)CC1`, 726 s.
`COc1cccc(N2CCN(c3ccnc(SCC(=O)Nc4ccc(F)cc4F)n3)CC2)c1` registered an RP-LC retention time of 804 s.
For `Cc1ccccc1N1CCN(S(=O)(=O)c2cc3n(c2)CCCN(C)C3=O)CC1`, the RP-LC retention time was 813 s.
`Cc1ccc(-n2nc(N3CCCC(C(=O)NCCCc4ccccc4)C3)ccc2=O)cc1Cl` (stereo unspecified) came in with an RP-LC retention time of 1010 s.
Compound `CCn1c(=O)c2ccccc2n(Cc2nc(-c3ccc(OC(C)C)cc3)no2)c1=O` registered an RP-LC retention time of 1050 s.
As for `Cc1cc(C)n(-c2ccc(C(=O)Nc3ccc(O)cc3)cn2)n1`, the RP-LC retention time turned out to be 738 s.
Under `COc1ccc2c(c1)CCc1sc(NC(=O)c3cccc(Cl)c3)nc1-2` stands 1180 s; under `O=C(Nc1ccccc1)N1CCc2[nH]cnc2C1c1ccccc1` (stereo unspecified), 625 s; under `COCCC1(N(C)C)CCN(C(=O)CC2CCCCC2)CC1`, 621 s.
Under `CCn1cc(CN2CCC(C(=O)NCc3ccc(C)o3)CC2)c2ccccc21` stands 690 s; under `O=C(Nc1ccc(C2(C(=O)NCc3cccc(Cl)c3)CCC2)cc1)C1CC1`, 891 s; under `CCCNC(=O)N1CCCC1c1nc(-c2cccc(C)c2)no1` (stereo unspecified), 826 s.
Under `Cc1ccn2c(NC(=O)c3cccc(Br)c3)c(-c3ccccc3)nc2c1` stands 715 s.
Consider `Cc1ccc(-c2nnc(N3CCC(C(=O)NCCC4=CCCCC4)CC3)o2)cc1`, for which the RP-LC retention time was 990 s.
Under `CC(C)N1C(=O)c2cccnc2Sc2cc(NC(=O)COc3ccc(F)cc3)ccc21` stands 894 s; under `CCn1c(=O)sc2cc(S(=O)(=O)N3CCC(C(=O)NCc4cccc(C)c4)CC3)ccc21`, 932 s.
Under `Fc1ccc(Nc2nc(N3CCOCC3)nc3[nH]ncc23)cc1` stands 601 s; under `CN1C(=O)c2cc(C(=O)NCCc3ccccc3)nn2CC1(C)C(=O)NC1CCCCCC1` (stereo unspecified), 795 s.
In the case of `O=C(NCc1ccccc1)C1CCCN(S(=O)(=O)c2c[nH]c(C(=O)N3CCCC3)c2)C1` (stereo unspecified) it was 748 s.
With `COc1ccc2c3c([nH]c2c1)[C@H](C=C(C)C)N1C(=O)[C@@H]2CCCN2C(=O)[C@@H]1C3`, the RP-LC retention time is 871 s.
With `CCC(=O)Nc1ccc(-n2cnc(C(=O)NCc3ccc(F)c(Cl)c3)c2)nc1`, the RP-LC retention time worked out at 760 s.
Under `Cc1ccc(NS(=O)(=O)c2cc(-c3[nH]ncc3C(=O)N3CCCCC3)oc2C)cc1F` stands 806 s; under `COc1cccc(NC(=O)Cn2nc3cc(C)nc(Nc4cc(C)cc(C)c4)n3c2=O)c1`, 1110 s.
Under `COC(=O)CNC(=O)NCC(=O)N1CCc2ccccc21` stands 647 s; under `Cc1ccc(NS(=O)(=O)c2ccc(-c3nnc(C4CCC4)o3)o2)c(C)c1`, 977 s.
Regarding `Cc1ccc(S(=O)(=O)N2CCCC2)cc1-c1nnc(-c2ccccc2Cl)o1`, the RP-LC retention time amounted to 1070 s.
`O=C(NCC(F)(F)F)C1CCN(Cc2noc(-c3ccc(F)cc3)n2)CC1` yielded an RP-LC retention time of 642 s.
`CC(C)Cc1cc(-c2nn3c(-c4ccc(F)cc4)nnc3s2)n[nH]1`: the RP-LC retention time is 1010 s.
Under `COc1ccc(CNC(=O)C2CCCN(c3cnc4nccnc4c3)C2)cc1` (stereo unspecified) stands 676 s; under `Cc1ccc(C2=NC3(CCN(C(=O)c4cnccn4)CC3)ON2)cc1`, 680 s; under `COC[C@@H]1CN(S(=O)(=O)c2ccccc2)C[C@H]1c1ccncc1`, 624 s.
Under `CCOC(=O)C1CCN(C(=O)C2CCN(c3ccc(N4CCCC4)nn3)CC2)CC1` stands 628 s; under `CC1CCCN(C(=O)c2cc3c(s2)CCN(C(=O)c2ccc(Cl)cc2)C3)C1` (stereo unspecified), 991 s; under `O=C(NCCc1ccccc1)c1cc2sccc2n1Cc1ccc(Cl)cc1`, 1210 s.
In the case of `O=C(NCc1ccc(N2CCOCC2)nc1)c1ccccc1Br` it was 581 s; in that of `O=C(CN1CCN(Cc2ccc(F)cc2)C1=O)NCCc1cccs1`, 776 s.
`Cc1[nH]cnc1CN1CCc2c(c3ccccc3n2C)C1=O` came in with an RP-LC retention time of 652 s.
In the case of `COCC(=O)N1CCCn2cc(-c3ccccc3F)nc21` it was 668 s; in that of `CN(C)C(=O)c1ccc2c(c1)N(CC(=O)NCCC1=CCCCC1)C(=O)C1CCCCN21` (stereo unspecified), 830 s.
In the case of `C=CCN1C(=O)COc2ccc(-c3nc(NC(=O)c4ccccc4Cl)sc3C)cc21` it was 1010 s; in that of `Cc1nc(CNC(=O)C2CCN(C(=O)Nc3ccc(Br)cc3F)CC2)cs1`, 699 s; in that of `Cc1cc(C)c(NC(=O)Cn2c(=O)cc(-c3nc(C)no3)c3ccccc32)c(C)c1`, 895 s.
With `O=S(=O)(NC1CCCC1)c1cccc(-c2nc(-c3ccccc3)no2)c1`, the RP-LC retention time worked out at 1170 s.
Under `COc1ccc(OC)c(CNC(=O)CCc2c(-c3ccc(Br)cc3)nc3ccccn23)c1` stands 693 s.
In turn, `COc1ccc(-c2ccnn2-c2ccc(SCC(=O)NC(C)C)nn2)cc1` showed an RP-LC retention time of 932 s.
Under `CN1CCCCCCN(C(=O)c2ccsc2)[C@H]2CCC[C@H]2C1=O` stands 797 s; under `O=C(Cc1ccccc1)N1CCCCC1c1nncn1-c1ccccc1` (stereo unspecified), 741 s; under `COc1cc(OC)c2c(C)c(CC(=O)N3CCC(C(N)=O)CC3)c(=O)oc2c1`, 649 s.
Turning to `O=C(COc1cccc2c1CCN(Cc1ccccc1F)C2=O)NCc1ccco1`, the RP-LC retention time stood at 790 s.
As to `O=C(NCCNC(=O)[C@@H]1CCCN1C(=O)c1ccc(F)cc1)c1ccc(F)cc1`, the RP-LC retention time is 656 s.
Under `CCNC(=O)c1csc(N2CCCC(C)C2)n1` (stereo unspecified) stands 928 s.
Under `O=C(NC1CCN(c2nnc3ccc(Cl)cn23)CC1)c1cccnc1` stands 567 s; under `COc1ccc(NC(=O)c2cc(S(=O)(=O)N3CCC(C)CC3)cn2C)c(OC)c1`, 1020 s; under `CCOc1ccc(-c2[nH]ncc2CN2CCC3(CC2)CC(C)(O)CCO3)cc1` (stereo unspecified), 596 s.
Under `Cc1ccc(C(=O)N2CCc3[nH]nc(C(=O)N(C)C)c3C2)cc1C` stands 657 s; under `Cc1ccc(-c2cn(CC(=O)Nc3cc(C)ccc3C)c(=O)o2)cc1`, 954 s.
`COc1ccc(CNC(=O)c2ccc3c(c2)N(C)C(=O)C2CCCCN32)c(OC)c1` (stereo unspecified) showed an RP-LC retention time of 868 s.
`Cc1cc(C)n(-c2ccnc(NCC(C)C)n2)n1` displayed an RP-LC retention time of 747 s.
Take `CC(NC(=O)Nc1ccccc1C(F)(F)F)C(=O)N1CCc2ccccc21` (stereo unspecified): the RP-LC retention time stood at 907 s.
Under `O=C(c1ccco1)N1CCCn2cc(-c3ccc4c(c3)OCO4)nc21` stands 661 s.
For the compound `COc1cc(OC)cc(-n2nnc(-c3nsc(Nc4ccc(OC)c(OC)c4)n3)c2C)c1`, the RP-LC retention time turned out to be 933 s.
In the case of `Cc1ccccc1CNC(=O)c1nnc(-c2ccc(S(=O)(=O)N(C)C)cc2)o1` it was 874 s.
For `O=C(NCc1ccccc1Cl)c1c(O)c2cccnc2n(-c2cccc(F)c2)c1=O`, the RP-LC retention time was 1230 s.
In the case of `CC(C)n1cnc(S(=O)(=O)N2CCC(C(=O)Nc3cccc(Br)c3)CC2)c1` it was 843 s; in that of `COc1cccc(CNC(=O)C2(C)CCCN(C(=O)Nc3cc(OC)cc(OC)c3)C2)c1` (stereo unspecified), 844 s.
Regarding `COc1cc(NC(=O)Nc2nc(-c3nc4ccccc4s3)cs2)cc(OC)c1OC`, the RP-LC retention time worked out at 863 s.
In the case of `CCC(C)NC(=O)c1ccc2c(c1)CCN2C(C)=O` (stereo unspecified) it was 668 s; in that of `O=C(NCCCn1c(C(F)(F)F)nc2cccnc21)Nc1cccc(F)c1`, 811 s.

Source of the values: the METLIN SMRT retention time set (Domingo-Almenara et al. 2019).
